Assay [1] in a line: Antiproliferative activity against human HL60 cells after 96 hrs by MTT assay. It counts as functional, cell-based. Conditions: HL-60, 96 h.
Assay [2] can be described thus: Cytotoxicity against human MES-SA cells assessed as reduction in cell viability after 96 hrs by CellTiter-Glo luminescence assay or methylene blue assay. In kind it is functional, cell-based.
Assay [3] can be described thus: Antiproliferative activity against human U266 cells after 96 hrs by MTT assay. In kind it is functional, cell-based. Particulars: U-266, 96 h. Background: Formazan colour is commonly taken as a measure of viable cells.
A short description of assay [4]: Antiproliferative activity against human MV4-11 cells expressing Flt-3 activation mutant after 96 hrs by CellTiter-Glo luminescence assay. Conditions: MV4-11, 96 h. It counts as functional, cell-based. In general terms: Cellular ATP, detected with luciferase, serves as a proxy for viable cell number.
Assay [5] concerns the target Receptor-type tyrosine-protein kinase FLT3 (Homo sapiens) (UniProt P36888). In words: Inhibition of human Flt3 assessed as remaining activity at 1 uM after 40 mins in presence of [gamma33P-ATP] by scintillation counting.
Assay [6] deals with Tyrosine-protein kinase ABL1 (Homo sapiens) (UniProt P00519). In words: Inhibition of human Abl assessed as remaining activity at 0.1 uM after 40 mins in presence of [gamma33P-ATP] by scintillation counting.
Sequence of Tyrosine-protein kinase ABL1 (Homo sapiens) (P00519 whole entry): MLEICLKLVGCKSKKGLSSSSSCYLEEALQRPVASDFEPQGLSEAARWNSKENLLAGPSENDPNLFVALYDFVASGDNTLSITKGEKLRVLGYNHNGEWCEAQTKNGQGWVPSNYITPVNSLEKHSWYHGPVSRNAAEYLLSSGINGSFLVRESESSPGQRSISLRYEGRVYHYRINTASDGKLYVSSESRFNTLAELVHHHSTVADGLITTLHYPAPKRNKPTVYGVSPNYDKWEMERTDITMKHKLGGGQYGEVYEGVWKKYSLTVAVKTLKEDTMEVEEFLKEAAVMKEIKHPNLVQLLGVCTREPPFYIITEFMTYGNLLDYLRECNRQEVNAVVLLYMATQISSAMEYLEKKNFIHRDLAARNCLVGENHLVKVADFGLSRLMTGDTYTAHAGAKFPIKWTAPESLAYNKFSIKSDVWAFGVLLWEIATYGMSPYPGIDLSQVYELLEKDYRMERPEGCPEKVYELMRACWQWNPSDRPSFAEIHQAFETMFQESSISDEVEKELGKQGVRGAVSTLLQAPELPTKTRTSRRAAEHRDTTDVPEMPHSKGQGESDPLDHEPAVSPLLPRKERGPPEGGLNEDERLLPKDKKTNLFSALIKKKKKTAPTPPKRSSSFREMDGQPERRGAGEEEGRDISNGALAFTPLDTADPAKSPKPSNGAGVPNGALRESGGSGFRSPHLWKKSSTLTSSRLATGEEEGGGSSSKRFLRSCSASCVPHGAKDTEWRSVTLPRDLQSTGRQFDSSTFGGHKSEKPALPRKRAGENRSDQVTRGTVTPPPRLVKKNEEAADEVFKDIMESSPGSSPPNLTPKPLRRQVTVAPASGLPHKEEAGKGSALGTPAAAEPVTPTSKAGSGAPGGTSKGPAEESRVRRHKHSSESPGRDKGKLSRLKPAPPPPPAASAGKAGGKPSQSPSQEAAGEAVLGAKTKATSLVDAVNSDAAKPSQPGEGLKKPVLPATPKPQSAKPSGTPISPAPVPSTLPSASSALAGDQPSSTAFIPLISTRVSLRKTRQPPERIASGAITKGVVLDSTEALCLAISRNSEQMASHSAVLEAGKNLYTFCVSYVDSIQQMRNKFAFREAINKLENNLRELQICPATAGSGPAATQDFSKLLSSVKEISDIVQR
Assay [7] can be described thus: Antiproliferative activity against human RL cells after 96 hrs by MTT assay. In kind it is functional, cell-based.
Assay [8] addresses Nuclear factor NF-kappa-B complex (Homo sapiens) (UniProt Q00653+P19838+Q04206). In words: Inhibition of NFkappaB (unknown origin). It counts as protein-complex assay.
The nature of assay [9]: Cytotoxicity against human COLO205 cells expressing B-RAF V600E mutant assessed as reduction in cell viability after 96 hrs by CellTiter-Glo luminescence assay or methylene blue assay. In kind it is functional, cell-based. Particulars: COLO 205, 96 h.
For assay [10], the target named is Receptor-type tyrosine-protein kinase FLT3 (Homo sapiens) (UniProt P36888). The experiment in a line: Inhibition of human Flt3 assessed as remaining activity at 0.1 uM after 40 mins in presence of [gamma33P-ATP] by scintillation counting.
Sequence of Receptor-type tyrosine-protein kinase FLT3 (Homo sapiens) (P36888 whole entry): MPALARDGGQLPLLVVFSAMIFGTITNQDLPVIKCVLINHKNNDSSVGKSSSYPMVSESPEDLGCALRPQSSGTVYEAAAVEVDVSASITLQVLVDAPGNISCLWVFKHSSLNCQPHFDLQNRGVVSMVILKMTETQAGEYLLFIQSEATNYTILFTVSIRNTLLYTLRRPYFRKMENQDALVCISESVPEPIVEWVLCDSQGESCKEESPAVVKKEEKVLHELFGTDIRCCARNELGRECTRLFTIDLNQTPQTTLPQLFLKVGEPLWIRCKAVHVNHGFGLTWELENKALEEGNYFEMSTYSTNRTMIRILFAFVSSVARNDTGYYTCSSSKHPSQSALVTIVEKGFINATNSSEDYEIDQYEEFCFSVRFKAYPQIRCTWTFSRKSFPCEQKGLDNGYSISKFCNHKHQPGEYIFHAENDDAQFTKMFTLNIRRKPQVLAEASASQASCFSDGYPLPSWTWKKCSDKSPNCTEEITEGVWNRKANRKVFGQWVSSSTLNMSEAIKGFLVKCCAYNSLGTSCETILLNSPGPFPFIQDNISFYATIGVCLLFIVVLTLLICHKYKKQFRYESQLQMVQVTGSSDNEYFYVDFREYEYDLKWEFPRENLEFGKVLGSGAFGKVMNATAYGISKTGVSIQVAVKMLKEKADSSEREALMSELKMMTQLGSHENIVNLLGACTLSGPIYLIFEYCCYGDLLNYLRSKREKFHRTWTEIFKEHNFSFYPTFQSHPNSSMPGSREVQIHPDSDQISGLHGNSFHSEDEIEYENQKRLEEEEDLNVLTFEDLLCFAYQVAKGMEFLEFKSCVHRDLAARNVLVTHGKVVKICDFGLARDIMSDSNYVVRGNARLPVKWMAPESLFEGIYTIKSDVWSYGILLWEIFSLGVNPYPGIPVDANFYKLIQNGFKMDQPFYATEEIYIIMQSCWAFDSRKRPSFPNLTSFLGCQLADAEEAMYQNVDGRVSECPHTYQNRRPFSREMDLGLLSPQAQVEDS
The nature of assay [11]: Cytotoxicity against human MES-SA/Dx5-Rx1 cells assessed as reduction in cell viability after 96 hrs by CellTiter-Glo luminescence assay or methylene blue assay. It counts as functional, cell-based.
For assay [12], the target named is Proto-oncogene tyrosine-protein kinase Src (Homo sapiens) (UniProt P12931). The experiment in a line: Inhibition of human c-Src assessed as remaining activity at 1 uM after 40 mins in presence of [gamma33P-ATP] by scintillation counting.
Sequence of Proto-oncogene tyrosine-protein kinase Src (Homo sapiens) (P12931 2-536 limits assumed): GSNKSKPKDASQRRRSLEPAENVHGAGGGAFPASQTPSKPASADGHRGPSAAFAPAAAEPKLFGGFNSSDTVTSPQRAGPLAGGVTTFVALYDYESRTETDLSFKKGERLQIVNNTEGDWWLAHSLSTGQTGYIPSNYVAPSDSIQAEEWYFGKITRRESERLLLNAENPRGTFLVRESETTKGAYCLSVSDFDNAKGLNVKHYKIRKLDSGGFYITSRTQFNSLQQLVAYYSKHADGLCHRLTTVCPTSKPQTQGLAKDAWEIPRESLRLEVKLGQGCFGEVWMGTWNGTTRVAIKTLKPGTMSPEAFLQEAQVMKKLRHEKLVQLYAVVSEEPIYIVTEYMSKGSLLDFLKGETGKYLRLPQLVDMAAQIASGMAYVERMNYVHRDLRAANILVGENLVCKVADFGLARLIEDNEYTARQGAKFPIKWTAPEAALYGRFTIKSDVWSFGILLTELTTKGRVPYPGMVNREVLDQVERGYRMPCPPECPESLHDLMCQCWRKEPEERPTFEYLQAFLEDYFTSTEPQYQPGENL

SMILES strings stand for the structures. Activity calls are given as the source filed them. The rule behind the calls is not given here.

Sequence of Nuclear factor NF-kappa-B complex (Homo sapiens) (P19838 whole entry, looked up): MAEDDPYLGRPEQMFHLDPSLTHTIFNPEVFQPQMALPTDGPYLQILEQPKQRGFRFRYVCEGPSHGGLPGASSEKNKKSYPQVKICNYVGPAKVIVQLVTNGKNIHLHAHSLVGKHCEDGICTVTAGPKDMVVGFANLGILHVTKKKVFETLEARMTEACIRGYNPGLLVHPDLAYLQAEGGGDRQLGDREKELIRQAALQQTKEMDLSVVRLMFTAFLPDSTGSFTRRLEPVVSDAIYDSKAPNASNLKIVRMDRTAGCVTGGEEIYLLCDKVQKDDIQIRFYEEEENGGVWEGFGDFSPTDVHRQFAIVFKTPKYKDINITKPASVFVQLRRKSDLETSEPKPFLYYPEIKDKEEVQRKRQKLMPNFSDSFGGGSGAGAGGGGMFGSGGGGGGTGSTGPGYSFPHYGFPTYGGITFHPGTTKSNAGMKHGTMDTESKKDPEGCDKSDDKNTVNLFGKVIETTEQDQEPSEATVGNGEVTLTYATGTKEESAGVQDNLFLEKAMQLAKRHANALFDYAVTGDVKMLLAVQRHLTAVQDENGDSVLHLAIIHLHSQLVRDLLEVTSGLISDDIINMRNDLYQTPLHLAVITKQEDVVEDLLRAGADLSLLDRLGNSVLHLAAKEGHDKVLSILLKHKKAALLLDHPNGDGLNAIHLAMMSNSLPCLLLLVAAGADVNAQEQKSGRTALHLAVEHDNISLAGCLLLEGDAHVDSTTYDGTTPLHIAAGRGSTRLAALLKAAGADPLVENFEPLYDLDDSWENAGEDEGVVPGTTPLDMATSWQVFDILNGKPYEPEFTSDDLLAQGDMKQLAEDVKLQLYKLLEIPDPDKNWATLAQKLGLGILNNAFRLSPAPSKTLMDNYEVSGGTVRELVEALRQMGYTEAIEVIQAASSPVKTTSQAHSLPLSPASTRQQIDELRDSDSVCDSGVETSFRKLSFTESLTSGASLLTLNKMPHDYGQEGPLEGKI
Sequence of Nuclear factor NF-kappa-B complex (Homo sapiens) (Q00653 whole entry, looked up): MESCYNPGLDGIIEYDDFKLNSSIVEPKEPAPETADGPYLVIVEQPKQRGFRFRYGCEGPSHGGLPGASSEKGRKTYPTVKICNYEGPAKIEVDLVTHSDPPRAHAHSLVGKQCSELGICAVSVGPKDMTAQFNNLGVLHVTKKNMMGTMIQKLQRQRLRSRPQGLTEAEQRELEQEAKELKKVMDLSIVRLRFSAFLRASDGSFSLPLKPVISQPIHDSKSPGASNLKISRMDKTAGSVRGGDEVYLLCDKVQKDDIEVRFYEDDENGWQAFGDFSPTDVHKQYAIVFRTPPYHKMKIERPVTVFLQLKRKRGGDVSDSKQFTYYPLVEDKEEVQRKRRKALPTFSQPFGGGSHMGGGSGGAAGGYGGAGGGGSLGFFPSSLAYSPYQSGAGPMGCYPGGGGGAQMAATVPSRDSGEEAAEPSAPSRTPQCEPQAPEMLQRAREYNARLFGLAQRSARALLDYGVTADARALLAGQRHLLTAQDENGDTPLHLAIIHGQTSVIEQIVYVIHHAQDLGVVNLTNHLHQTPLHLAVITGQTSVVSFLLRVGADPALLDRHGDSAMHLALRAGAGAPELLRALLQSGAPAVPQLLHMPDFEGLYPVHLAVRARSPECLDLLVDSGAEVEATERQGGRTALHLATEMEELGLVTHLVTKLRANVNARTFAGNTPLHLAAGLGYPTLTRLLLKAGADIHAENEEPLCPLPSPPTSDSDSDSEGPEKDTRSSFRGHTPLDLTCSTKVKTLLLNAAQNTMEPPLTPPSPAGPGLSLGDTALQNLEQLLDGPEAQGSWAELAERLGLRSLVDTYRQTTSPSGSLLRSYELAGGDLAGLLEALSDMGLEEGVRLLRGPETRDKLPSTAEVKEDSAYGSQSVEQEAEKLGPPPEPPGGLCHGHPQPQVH
Sequence of Nuclear factor NF-kappa-B complex (Homo sapiens) (Q04206 whole entry, looked up): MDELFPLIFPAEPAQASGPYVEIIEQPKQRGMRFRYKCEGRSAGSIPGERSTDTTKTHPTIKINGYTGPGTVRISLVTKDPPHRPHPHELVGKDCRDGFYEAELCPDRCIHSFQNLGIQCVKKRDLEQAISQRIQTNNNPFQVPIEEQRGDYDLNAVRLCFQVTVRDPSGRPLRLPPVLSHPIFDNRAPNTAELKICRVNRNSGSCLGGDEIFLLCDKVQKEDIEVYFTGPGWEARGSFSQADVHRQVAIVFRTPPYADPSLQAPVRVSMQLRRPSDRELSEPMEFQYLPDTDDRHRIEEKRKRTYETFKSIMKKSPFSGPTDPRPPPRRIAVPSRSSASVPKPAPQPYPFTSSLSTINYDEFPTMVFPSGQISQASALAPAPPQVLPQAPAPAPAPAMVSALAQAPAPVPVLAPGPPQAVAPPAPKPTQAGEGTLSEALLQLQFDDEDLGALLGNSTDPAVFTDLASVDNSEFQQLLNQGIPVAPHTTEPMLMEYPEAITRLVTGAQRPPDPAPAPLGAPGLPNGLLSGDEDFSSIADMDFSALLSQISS

As for `CCNc1cc(O)c2c(c1)/C=C/C[C@H](O)[C@H](O)C(=O)/C=C\[C@@H](C)[C@H](C)OC2=O` [E-6201], the IC50 worked out at 60 nM in assay [1]; 7490 nM in [2]; 950 nM in assay [3]; 8.2 nM in assay [4]; 1650 nM in [7]; 43 nM in [9]. The IC50 in [11] amounted to 1590 nM. Besides, the Activity in assay [5] came out at 6%; in assay [6] it was 51%; in [10] it was 33%; in assay [12] it was 1%. For the same compound, in assay [8], the inhibition entry is “Active”.

Usually IC50 stands for the concentration that gives 50% inhibition.

Values taken from ChEMBL document CHEMBL3880411, “Multikinase inhibitors for use in the treatment of cancer” (2009).
